Like-named read-outs stand apart in the source and are kept apart here.
Target: T1, SIRT1 (Homo sapiens, UniProt Q96EB6)
T1 sequence (Q96EB6 1-747): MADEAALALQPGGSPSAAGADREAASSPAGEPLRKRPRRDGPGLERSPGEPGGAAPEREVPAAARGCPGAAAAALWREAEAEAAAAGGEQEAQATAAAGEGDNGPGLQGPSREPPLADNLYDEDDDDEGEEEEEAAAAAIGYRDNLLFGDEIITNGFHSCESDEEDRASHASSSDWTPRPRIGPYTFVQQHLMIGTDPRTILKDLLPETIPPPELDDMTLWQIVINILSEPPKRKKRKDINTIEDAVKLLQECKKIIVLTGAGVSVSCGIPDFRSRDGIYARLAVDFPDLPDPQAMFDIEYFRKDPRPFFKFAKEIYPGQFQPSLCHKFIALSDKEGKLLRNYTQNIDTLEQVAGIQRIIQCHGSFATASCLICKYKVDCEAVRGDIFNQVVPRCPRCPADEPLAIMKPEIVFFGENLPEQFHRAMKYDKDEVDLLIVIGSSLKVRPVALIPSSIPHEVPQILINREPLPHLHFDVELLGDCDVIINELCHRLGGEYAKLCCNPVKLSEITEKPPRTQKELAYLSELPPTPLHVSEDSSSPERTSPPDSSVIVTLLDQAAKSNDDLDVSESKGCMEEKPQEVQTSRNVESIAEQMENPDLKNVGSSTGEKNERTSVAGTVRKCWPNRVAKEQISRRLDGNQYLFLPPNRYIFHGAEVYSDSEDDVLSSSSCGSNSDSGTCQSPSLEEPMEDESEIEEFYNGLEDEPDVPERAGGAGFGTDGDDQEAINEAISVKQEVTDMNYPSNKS
Experiment: Trp mass spectrometry assay (SIRT1 activation)
Assay type: biochemical
Conditions: for Emax: percent maximum fold activation of SIRT1, read-out: Tryp % Fold Act
Method in brief: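 N-His-tagged SIRT1 (10 nM), expressed in E. coli, was incubated with 0.5 μM Ac-RHKK(Ac)W-NH2 peptide and 120 μM NAD+ for 25 min at 25 °C in HEPES pH 7.5 with […]. The reaction was stopped with formic acid and O-acetyl-ADP-ribose or deacetylated peptide was quantified by mass spectrometry. Results are given as EC1.5 and percent maximal activation relative to DMSO control.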

[1] = concentration of test compound that results in 150% activation of SIRT1, Trp peptide substrate
[2] = Trp mass spectrometry assay, EC1.5 = concentration of test compound that results in 150% activation of SIRT1
[3] = Trp mass spectrometry assay, EC1.5 = concentration giving 150% activation of SIRT1

Tryp AVG EC1.5 (μM) [1]	Emax (Trp peptide substrate) [%]	Tryp AVG EC1.5 (μM) [2]	Emax (Trp mass spectrometry assay) [%]	Tryp AVG EC1.5 (μM) [3]	SMILES
B (EC1.5 1-25 μM)	≥ 150	–	–	–	COc1cc(NC(=O)N2c3nc(-c4cccnc4)ccc3N3CCC[C@H]2C3)ncn1 [Example 442]
–	–	–	≥ 150	B (EC1.5 1-25 μM)	Cc1nc(NC(=O)N2c3nc(-c4cccc(Cl)c4)ccc3N3C[C@@H](O)[C@H]2C3)sc1C [Example 688]
A (EC1.5<1 μM)	≥ 150	–	–	–	N#Cc1cncc(-c2ccc3c(n2)N(C(=O)Nc2cnccn2)[C@H]2CCN3C2)c1 [Example 459]
–	–	–	≥ 150	A (EC1.5<1 μM)	Cc1noc(C)c1-c1cccc(NC(=O)N2c3nc(-c4cccc(C(F)(F)F)c4)ccc3N3CC[C@H]2C3)n1 [Example 657]
–	–	–	≥ 150	B (EC1.5 1-25 μM)	O=C(Nc1cncc(F)c1)N1c2nc(-c3cccc(Cl)c3)ccc2N2C[C@@H](O)[C@H]1C2 [Example 677]
–	–	–	≥ 150	A (EC1.5<1 μM)	Cc1cncc(NC(=O)N2c3nc(-c4cccc(Cl)c4)ccc3N3C[C@@H](O)[C@H]2C3)c1 [Example 676]
–	–	–	≥ 150	B (EC1.5 1-25 μM)	C#CCNc1nccc(NC(=O)N2c3nc(-c4ccc(C5(C(F)(F)F)N=N5)cc4)ccc3N3CC[C@H]2C3)n1 [Example 805]
B (EC1.5 1-25 μM)	≥ 150	–	–	–	Cc1nc(NC(=O)N2c3nc(-c4cccc(Cl)c4)ccc3N3CCC2CC3)sc1C [Example 569]
–	–	–	≥ 150	A (EC1.5<1 μM)	NS(=O)(=O)c1ccc(NC(=O)N2c3nc(-c4cccc(C(F)(F)F)c4)ccc3N3CC[C@H]2C3)cc1 [Example 643]
–	–	–	≥ 150	B (EC1.5 1-25 μM)	Cc1nc(NC(=O)N2c3nc(-c4cccc(C(F)(F)F)c4)ccc3N3C[C@@H](O)[C@H]2C3)sc1C [Example 699]
–	–	–	≥ 150	B (EC1.5 1-25 μM)	O=C(NCCCn1ccnc1)N1c2nc(-c3cccc(C(F)(F)F)c3)ccc2N2CC[C@H]1C2 [Example 627]
A (EC1.5<1 μM)	≥ 150	–	–	–	O=C(Nc1cnccn1)N1c2nc(-c3cncc(Cl)c3)ccc2N2CCC[C@H]1C2 [Example 417]
–	–	–	≥ 150	A (EC1.5<1 μM)	CC(C)(C)OC(=O)NCCCc1ccc(NC(=O)N2c3nc(-c4cccc(C(F)(F)F)c4)ccc3N3CCC[C@H]2C3)cc1-c1cnco1 [Example 752]
–	–	–	≥ 150	B (EC1.5 1-25 μM)	O=C(Nc1ccncn1)N1c2nc(-c3cccc(Cl)c3)ccc2N2C[C@@H](O)[C@H]1C2 [Example 684]
A (EC1.5<1 μM)	≥ 150	–	–	–	Cc1cncc(-c2ccc3c(n2)N(C(=O)Nc2nc(C)c(C)s2)[C@H]2CCCN3C2)c1 [Example 507]
B (EC1.5 1-25 μM)	≥ 150	–	–	–	COc1cc(NC(=O)N2c3nc(-c4cncc(Cl)c4)ccc3N3CCC2CC3)nc(OC)n1 [Example 553]
B (EC1.5 1-25 μM)	≥ 150	–	–	–	Cc1nc(NC(=O)N2c3nc(-c4cccnc4)ccc3N3CCC[C@H]2C3)sc1C [Example 466]
B (EC1.5 1-25 μM)	≥ 150	–	–	–	O=C(Nc1cccnc1)N1c2nc(-c3cc[nH]n3)ccc2N2CC[C@H]1C2 [Example 493]
A (EC1.5<1 μM)	≥ 150	–	–	–	Cc1cncc(-c2ccc3c(n2)N(C(=O)Nc2ccncn2)[C@H]2CCCN3C2)c1 [Example 517]
A (EC1.5<1 μM)	≥ 150	–	–	–	O=C(Nc1cccc(C(F)(F)F)c1)N1c2nc(-c3cccc(C(F)(F)F)c3)ccc2N2CC[C@H]1C2 [Example 617]
–	–	–	< 150	C (EC1.5>25 μM)	O=C(Nc1ccc(Oc2ccccc2)cc1)N1c2nc(-c3cccc(C(F)(F)F)c3)ccc2N2CC[C@H]1C2 [Example 641]
B (EC1.5 1-25 μM)	≥ 150	–	–	–	O=C(NCCc1ccccc1)N1c2nc(-c3cccc(C(F)(F)F)c3)ccc2N2CC[C@H]1C2 [Example 598]
–	–	–	< 150	C (EC1.5>25 μM)	CC(=O)O[C@H]1CN2C[C@H]1N(C(=O)Nc1ccccn1)c1nc(-c3cccc(C(F)(F)F)c3)ccc12 [Example 634]
A (EC1.5<1 μM)	≥ 150	–	–	–	O=C(Nc1cc(-c2cnco2)ccn1)N1c2nc(-c3cccc(C(F)(F)F)c3)ccc2N2CCC[C@H]1C2 [Example 591]

Second part, the molecule before the results:

SMILES	Tryp AVG EC1.5 (μM) [1]	Emax (Trp peptide substrate) [%]	Tryp AVG EC1.5 (μM) [2]	Emax (Trp mass spectrometry assay) [%]	Tryp AVG EC1.5 (μM) [3]
O=C(Nc1ccc2c(c1)OCCCO2)N1c2nc(-c3cccc(C(F)(F)F)c3)ccc2N2CC[C@H]1C2 [Example 95]	–	–	A (EC1.5<1 μM)	≥ 150	–
O=C(Nc1cccnn1)N1c2nc(-c3cccc(C(F)(F)F)c3)ccc2N2CCC[C@@H]1C2 [Example 196]	–	–	B (EC1.5 1-25 μM)	≥ 150	–
O=C(Nc1cccnc1)N1c2nc(N3CCCC(C(F)(F)F)C3)ccc2N2CCC[C@@H]1C2 (stereo partly drawn) [Example 302]	B (EC1.5 1-25 μM)	≥ 150	–	–	–
N#Cc1cccc(-c2ccc3c(n2)N(C(=O)Nc2ccccn2)[C@@H]2CCCN3C2)c1 [Example 225]	B (EC1.5 1-25 μM)	≥ 150	–	–	–
O=C(Nc1cccc(-c2cnco2)c1)N1c2nc(-c3cccc(N4CCCC4)c3)ccc2N2CC[C@H]1C2 [Example 191]	–	–	A (EC1.5<1 μM)	≥ 150	–
O=C(Nc1cccnc1)N1c2nc(-c3cncc(C(F)(F)F)c3)ccc2N2CCC[C@H]1C2 [Example 392]	A (EC1.5<1 μM)	≥ 150	–	–	–
O=C(Nc1ccncc1F)N1c2nc(-c3ccccc3C(F)(F)F)ccc2N2CC[C@H]1C2 [Example 152]	–	–	C (EC1.5>25 μM)	≥ 150	–
O=C(Nc1ccncc1F)N1c2nc(-c3cccc(OC(F)(F)F)c3)ccc2N2CC[C@H]1C2 [Example 153]	–	–	A (EC1.5<1 μM)	≥ 150	–
O=C(Nc1cnccn1)N1c2nc(-c3cc(Cl)cc(Cl)c3)ccc2N2CC[C@H]1C2 [Example 364]	B (EC1.5 1-25 μM)	≥ 150	–	–	–
O=C(Nc1cncc(OCC(O)CO)n1)N1c2nc(-c3cccc(Cl)c3)ccc2N2CC[C@H]1C2 (stereo partly drawn) [Example 63]	–	–	–	≥ 150	–
CC(=O)c1cc(F)c(NC(=O)N2c3nc(-c4cccc(C(F)(F)F)c4)ccc3N3CC[C@H]2C3)c(F)c1 [Example 78]	–	–	–	≥ 150	–
O=C(Nc1cccnc1)N1c2nc(-c3cccc(Cl)c3)ccc2N2CC[C@H]1C2 [Example 107]	–	–	–	≥ 150	–
COc1cc(NC(=O)N2c3nc(-c4cccc(C(F)(F)F)c4)ccc3N3CCC2CC3)nc(OC)n1 [Example 170]	–	–	A (EC1.5<1 μM)	≥ 150	–
O=C(Nc1ccncc1F)N1c2nc(-c3cccc(CC(O)CO)c3)ccc2N2CC[C@H]1C2 (stereo partly drawn) [Example 357]	B (EC1.5 1-25 μM)	≥ 150	–	–	–
COc1cc(-c2cccc(C(F)(F)F)c2)nc2c1N1CC[C@@H](C1)N2C(=O)Nc1nc(C)c(C)s1 [Example 161]	–	–	A (EC1.5<1 μM)	≥ 150	–
N#Cc1cccc(-c2ccc3c(n2)N(C(=O)Nc2cccnn2)[C@H]2CCCN3C2)c1 [Example 381]	B (EC1.5 1-25 μM)	≥ 150	–	–	–
O=C(Nc1cccc(-c2cnco2)c1)N1c2nc(-c3cccc(Cl)c3)ccc2N2CC[C@H]1C2 [Example 365]	A (EC1.5<1 μM)	≥ 150	–	–	–
O=C(Nc1ccc(F)cn1)N1c2nc(-c3cccc(C(F)(F)F)n3)ccc2N2CC[C@H]1C2 [Example 340]	B (EC1.5 1-25 μM)	≥ 150	–	–	–
O=C(Nc1ccc(F)cn1)N1c2nc(-c3cccc(N4CC[C@@H](F)C4)c3)ccc2N2CC[C@H]1C2 [Example 269]	B (EC1.5 1-25 μM)	≥ 150	–	–	–
O=C(Nc1ccncc1)N1c2nc(-c3cccc(Cl)c3)ccc2N2CC[C@H]1C2 [Example 122]	–	–	A (EC1.5<1 μM)	≥ 150	–
COc1cc(NC(=O)N2c3nc(-c4cccc(Cl)c4)ccc3N3CC[C@H]2C3)ncn1 [Example 104]	–	–	B (EC1.5 1-25 μM)	≥ 150	–
Cc1noc(C)c1-c1ccc2c(n1)N(C(=O)Nc1cnccn1)[C@H]1CCN2C1 [Example 413]	C (EC1.5>25 μM)	< 150	–	–	–
O=C(Nc1ccccn1)N1c2nc(-c3cccc(N4CC[C@H](F)C4)c3)ccc2N2CC[C@H]1C2 [Example 280]	A (EC1.5<1 μM)	≥ 150	–	–	–
O=C(Nc1ccccn1)N1c2nc(-c3ccnc(C(F)(F)F)c3)ccc2N2CC[C@H]1C2 [Example 142]	–	–	A (EC1.5<1 μM)	≥ 150	–

— patent US9765075B2, “Substituted bridged urea analogs as sirtuin modulators” (GLAXOSMITHKLINE LLC, priority 2013, dated 2017)
